Read-outs that look alike come from different tables or passages of the source.

The test addresses T1, Nav 1.7 (Homo sapiens, UniProt Q15858).
T1 construct: expressed in transfected cells
In words: Whole-cell voltage clamp electrophysiology, automated patch clamp (marker c in Table of Examples). In kind it is cell-based. The conditions noted are these: read-out: Nav 1.7 activity. Put shortly: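 Human NaV1.7 currents were recorded by whole-cell automated patch clamp, on IonWorks Quattro or another automated platform, typically in perforated-patch configuration. The stimulus protocol was designed to probe block mainly of the inactivated state, with a typical sweep stepping from about −65 mV holding to −10 mV, then −100 mV.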

The mark [1] stands for this setting: marker c: Automated patch clamp data.
Where [2] appears, read: marker c = Automated patch clamp data.

T1 sequence (Q15858 whole entry): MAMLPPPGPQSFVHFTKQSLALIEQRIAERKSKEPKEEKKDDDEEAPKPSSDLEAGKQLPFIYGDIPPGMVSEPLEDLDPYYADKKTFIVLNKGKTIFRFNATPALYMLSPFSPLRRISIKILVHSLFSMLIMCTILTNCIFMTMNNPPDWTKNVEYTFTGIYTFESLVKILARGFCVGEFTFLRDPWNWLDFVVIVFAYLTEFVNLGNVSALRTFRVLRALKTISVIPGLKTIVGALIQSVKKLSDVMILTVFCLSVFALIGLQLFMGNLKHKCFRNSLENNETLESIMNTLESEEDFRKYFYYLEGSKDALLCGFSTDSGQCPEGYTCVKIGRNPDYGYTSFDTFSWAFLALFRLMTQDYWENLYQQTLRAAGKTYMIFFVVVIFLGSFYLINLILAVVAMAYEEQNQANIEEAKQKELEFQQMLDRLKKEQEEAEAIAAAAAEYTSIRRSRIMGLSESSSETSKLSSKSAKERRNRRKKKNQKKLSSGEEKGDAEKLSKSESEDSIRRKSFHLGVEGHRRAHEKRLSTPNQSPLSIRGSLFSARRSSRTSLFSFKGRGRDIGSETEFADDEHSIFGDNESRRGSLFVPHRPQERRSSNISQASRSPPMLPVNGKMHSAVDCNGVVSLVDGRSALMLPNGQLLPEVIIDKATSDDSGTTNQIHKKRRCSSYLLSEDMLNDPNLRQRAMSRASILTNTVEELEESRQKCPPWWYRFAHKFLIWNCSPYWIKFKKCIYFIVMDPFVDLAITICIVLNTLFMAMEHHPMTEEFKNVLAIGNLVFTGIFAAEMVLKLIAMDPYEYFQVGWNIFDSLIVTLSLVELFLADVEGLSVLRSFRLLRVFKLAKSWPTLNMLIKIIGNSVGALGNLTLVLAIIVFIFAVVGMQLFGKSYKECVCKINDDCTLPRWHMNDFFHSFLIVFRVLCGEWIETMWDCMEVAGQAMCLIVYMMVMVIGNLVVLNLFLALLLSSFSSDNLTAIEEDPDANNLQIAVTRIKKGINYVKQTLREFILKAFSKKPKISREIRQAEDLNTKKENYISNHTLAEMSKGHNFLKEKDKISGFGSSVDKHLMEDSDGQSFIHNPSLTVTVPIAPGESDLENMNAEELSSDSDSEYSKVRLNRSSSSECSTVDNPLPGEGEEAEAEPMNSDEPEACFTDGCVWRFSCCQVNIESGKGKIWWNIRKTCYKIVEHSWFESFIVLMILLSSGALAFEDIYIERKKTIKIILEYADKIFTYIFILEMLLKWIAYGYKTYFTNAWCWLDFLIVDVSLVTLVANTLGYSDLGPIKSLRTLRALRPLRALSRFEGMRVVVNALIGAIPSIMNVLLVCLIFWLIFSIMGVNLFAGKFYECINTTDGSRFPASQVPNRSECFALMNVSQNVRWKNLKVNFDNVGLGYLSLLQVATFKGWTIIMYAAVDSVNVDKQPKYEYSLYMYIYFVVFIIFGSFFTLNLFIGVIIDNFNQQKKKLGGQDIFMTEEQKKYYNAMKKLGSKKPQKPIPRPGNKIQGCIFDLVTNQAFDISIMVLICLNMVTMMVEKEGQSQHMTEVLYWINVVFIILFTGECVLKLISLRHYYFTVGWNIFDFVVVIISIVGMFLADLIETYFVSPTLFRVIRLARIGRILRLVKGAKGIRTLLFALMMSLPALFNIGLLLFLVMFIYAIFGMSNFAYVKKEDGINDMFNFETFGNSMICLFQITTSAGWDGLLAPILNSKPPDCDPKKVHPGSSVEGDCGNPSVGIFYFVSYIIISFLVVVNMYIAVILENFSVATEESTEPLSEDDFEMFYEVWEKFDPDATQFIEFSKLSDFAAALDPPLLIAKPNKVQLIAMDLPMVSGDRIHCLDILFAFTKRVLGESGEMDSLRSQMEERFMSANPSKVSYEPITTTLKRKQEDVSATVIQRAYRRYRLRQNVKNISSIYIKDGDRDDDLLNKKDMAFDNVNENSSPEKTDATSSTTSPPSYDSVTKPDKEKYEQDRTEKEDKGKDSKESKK

For `CN(c1ccccc1)c1nc(N)nc(-c2noc(N3CCOCC3)n2)n1` [Example 45, N-Methyl-6-(5-morpholin-4-yl-[1,2,4]oxadiazol-3-yl)-N-phenyl-[1,3,5]triazine-2,4-diamine], the IC50 under setting [1] came out at 3520 nM.

As for `CN(c1ccccc1)c1nc(N)nc(-c2noc(-c3ccc(CSCC(F)(F)F)nc3)n2)n1` [Example 316, 2-N-methyl-2-N-phenyl-6-[5-(6-{[(2,2,2-trifluoroethyl)sulfanyl]methyl}pyridin-3-yl)-1,2,4-oxadiazol-3-yl]-1,3,5-triazine-2,4-diamine], the IC50 under setting [2] came to 13 nM.

For the molecule `CN(c1ccccc1)c1nc(N)nc(-c2noc(-c3ccc(C(F)(F)F)nc3)n2)n1` [Example 267, 2-N-methyl-2-N-phenyl-6-{5-[6-(trifluoromethyl)pyridin-3-yl]-1,2,4-oxadiazol-3-yl}-1,3,5-triazine-2,4-diamine], the IC50 under setting [2] was greater than 8260 nM.

Take `CC(C)OC(=O)c1ccc(-c2nc(-c3nc(N)nc(N(C)c4ccccc4)n3)no2)cn1` [Example 289, propan-2-yl 5-(3-{4-amino-6-[methyl(phenyl)amino]-1,3,5-triazin-2-yl}-1,2,4-oxadiazol-5-yl)pyridine-2-carboxylate]: the IC50 under setting [2] amounted to 390 nM.

Turning to `CN(c1ccccc1)c1nc(N)nc(-c2noc(N3C[C@@H]4[C@@H](COCC5CC5)[C@@H]4C3)n2)n1` [Example 395, 6-{5-[6-[(cyclopropylmethoxy)methyl]-3-azabicyclo[3.1.0]hexan-3-yl]-1,2,4-oxadiazol-3-yl}-2-N-methyl-2-N-phenyl-1,3,5-triazine-2,4-diamine], the IC50 under setting [2] was determined as 2660 nM.

As to `CN(c1ccccc1)c1nc(N)nc(-c2noc(N3C[C@@H]4[C@@H](COCCC(F)(F)F)[C@@H]4C3)n2)n1` [Example 396, 2-N-methyl-2-N-phenyl-6-{5-[6-[(3,3,3-trifluoropropoxy)methyl]-3-azabicyclo[3.1.0]hexan-3-yl]-1,2,4-oxadiazol-3-yl}-1,3,5-triazine-2,4-diamine], the IC50 under setting [2] is 1130 nM.

Consider `CN(c1ccccc1)c1nc(N)nc(-c2noc(-c3cccnc3C(=O)NC3CCC3)n2)n1` [Example 374, 3-(3-{4-amino-6-[methyl(phenyl)amino]-1,3,5-triazin-2-yl}-1,2,4-oxadiazol-5-yl)-N-cyclobutylpyridine-2-carboxamide], for which, under setting [2], the IC50 stood at 2080 nM.

Turning to `CC1CCN(c2nc(-c3nc(N)nc(Nc4cccc(F)c4)n3)no2)CC1` [Example 245, 2-N-(3-fluorophenyl)-6-[5-(4-methylpiperidin-1-yl)-1,2,4-oxadiazol-3-yl]-1,3,5-triazine-2,4-diamine], the IC50 under setting [2] came to 3090 nM.

Regarding `COCCOc1cccnc1-c1nc(-c2nc(N)nc(N(C)c3ccccc3)n2)no1` [Example 483, 6-{5-[3-(2-methoxyethoxy)pyridin-2-yl]-1,2,4-oxadiazol-3-yl}-2-N-methyl-2-N-phenyl-1,3,5-triazine-2,4-diamine], the IC50 under setting [2] was 2400 nM.

As for `CN(c1ccccc1)c1nc(N)nc(-c2noc(-c3cccnc3C(=O)NCC3CC3)n2)n1` [Example 370, 3-(3-{4-amino-6-[methyl(phenyl)amino]-1,3,5-triazin-2-yl}-1,2,4-oxadiazol-5-yl)-N-(cyclopropylmethyl)pyridine-2-carboxamide], under setting [2], the IC50 turned out to be 3510 nM.

With `CN(c1ccccc1)c1nc(N)nc(-c2noc(-c3ccc[nH]3)n2)n1` [Example 60, N-Methyl-N-phenyl-6-[5-(1H-pyrrol-2-yl)-[1,2,4]oxadiazol-3-yl]-[1,3,5]triazine-2,4-diamine], the IC50 under setting [1] is 4910 nM.

On to `CN(c1ccccc1)c1nc(N)nc(-c2noc(-c3ccnn3C)n2)n1` [Example 253, 2-N-methyl-6-[5-(1-methyl-1H-pyrazol-5-yl)-1,2,4-oxadiazol-3-yl]-2-N-phenyl-1,3,5-triazine-2,4-diamine], for which the IC50 under setting [2] is 4560 nM.

On to `COC1CN(c2nc(-c3nc(N)nc(N(C)c4ccccc4)n3)no2)C1` [Example 493, 6-[5-(3-methoxyazetidin-1-yl)-1,2,4-oxadiazol-3-yl]-2-N-methyl-2-N-phenyl-1,3,5-triazine-2,4-diamine], for which the IC50 under setting [2] was greater than 9350 nM.

Consider `CN(c1ccccc1)c1nc(N)nc(-c2noc(N3CCCC3)n2)n1` [Example 131, N-Methyl-N-phenyl-6-(5-pyrrolidin-1-yl-[1,2,4]oxadiazol-3-yl)-[1,3,5]triazine-2,4-diamine], for which, under setting [1], the IC50 stood at 5110 nM.

For the molecule `Nc1nc(Nc2ccccc2)nc(-c2noc(-c3cccnc3OCC(F)(F)F)n2)n1` [Example 502, 2-N-phenyl-6-{5-[2-(2,2,2-trifluoroethoxy)pyridin-3-yl]-1,2,4-oxadiazol-3-yl}-1,3,5-triazine-2,4-diamine], the IC50 under setting [2] is greater than 8950 nM.

For the molecule `CC(=O)N1CCC(c2nc(-c3nc(N)nc(N(C)c4ccccc4)n3)no2)CC1` [Example 162, 1-[4-(3-{4-amino-6-[methyl(phenyl)amino]-1,3,5-triazin-2-yl}-1,2,4-oxadiazol-5-yl)piperidin-1-yl]ethan-1-one], the IC50 under setting [1] stood at 8980 nM.

`COc1cc(-c2nc(-c3nc(N)nc(Nc4ccccc4)n3)no2)ccn1` [Example 239, 6-[5-(2-methoxypyridin-4-yl)-1,2,4-oxadiazol-3-yl]-2-N-phenyl-1,3,5-triazine-2,4-diamine]: the IC50 under setting [2] came to 5870 nM.

Turning to `CN(c1ccccc1)c1nc(N)nc(-c2noc(N3CCN(S(=O)(=O)CC(F)(F)F)CC3)n2)n1` [Example 389, 2-N-methyl-2-N-phenyl-6-(5-{4-[(2,2,2-trifluoroethane)sulfonyl]piperazin-1-yl}-1,2,4-oxadiazol-3-yl)-1,3,5-triazine-2,4-diamine], under setting [2], the IC50 amounted to 5990 nM.

Consider `CN(c1ccccc1)c1nc(N)nc(-c2noc(-c3ncccc3OCC(F)(F)F)n2)n1` [Example 486, 2-N-methyl-2-N-phenyl-6-{5-[3-(2,2,2-trifluoroethoxy)pyridin-2-yl]-1,2,4-oxadiazol-3-yl}-1,3,5-triazine-2,4-diamine], for which the IC50 under setting [2] is 1220 nM.

Consider `Nc1nc(Nc2ccccc2)nc(-c2noc(C(=O)N3CCC(OCC4CC4)CC3)n2)n1` [Example 462, 6-(5-{[4-(cyclopropylmethoxy)piperidin-1-yl]carbonyl}-1,2,4-oxadiazol-3-yl)-2-N-phenyl-1,3,5-triazine-2,4-diamine], for which, under setting [2], the IC50 turned out to be 3610 nM.

Turning to `Nc1nc(Nc2ccccc2)nc(-c2noc(C(=O)N3CCC(COCC4CC4)CC3)n2)n1` [Example 463, 6-[5-({4-[(cyclopropylmethoxy)methyl]piperidin-1-yl}carbonyl)-1,2,4-oxadiazol-3-yl]-2-N-phenyl-1,3,5-triazine-2,4-diamine], under setting [2], the IC50 amounted to 1820 nM.

For `Nc1nc(Nc2ccccc2)nc(-c2noc(N3C[C@@H]4[C@@H](COCC5CC5)[C@@H]4C3)n2)n1` [Example 393, 6-{5-[6-[(cyclopropylmethoxy)methyl]-3-azabicyclo[3.1.0]hexan-3-yl]-1,2,4-oxadiazol-3-yl}-2-N-phenyl-1,3,5-triazine-2,4-diamine], under setting [2], the IC50 was found to be 884 nM.

As to `COc1ccc(NC(=O)c2nc(-c3nc(N)nc(N(C)c4ccccc4)n3)no2)cn1` [Example 258, 3-{4-Amino-6-[methyl(phenyl)amino]-1,3,5-triazin-2-yl}-N-(6-methoxypyridin-3-yl)-1,2,4-oxadiazole-5-carboxamide], the IC50 under setting [2] was 1850 nM.

Consider `CN(c1ccccc1)c1nc(N)nc(-c2noc(-c3ncccc3NC3CCC3)n2)n1` [Example 488, 6-{5-[3-(cyclobutylamino)pyridin-2-yl]-1,2,4-oxadiazol-3-yl}-2-N-methyl-2-N-phenyl-1,3,5-triazine-2,4-diamine], for which the IC50 under setting [2] was 838 nM.

`CC(OCc1ccc(-c2nc(-c3nc(N)nc(N(C)c4ccccc4)n3)no2)cn1)C(F)(F)F` (centres unmarked) [Example 206, 2-N-methyl-2-N-phenyl-6-[5-(6-{[(1,1,1-trifluoropropan-2-yl)oxy]methyl}pyridin-3-yl)-1,2,4-oxadiazol-3-yl]-1,3,5-triazine-2,4-diamine]: under setting [2], the IC50 is 17 nM.

Regarding `Nc1nc(Nc2ccccc2)nc(-c2noc(NC3CCCC3)n2)n1` [Example 231, 6-[5-(cyclopentylamino)-1,2,4-oxadiazol-3-yl]-2-N-phenyl-1,3,5-triazine-2,4-diamine], the IC50 under setting [2] turned out to be 3210 nM.

Turning to `CN(c1ccccc1)c1nc(N)nc(-c2noc(-c3cccnc3C(=O)NCC(F)(F)F)n2)n1` [Example 375, 3-(3-{4-amino-6-[methyl(phenyl)amino]-1,3,5-triazin-2-yl}-1,2,4-oxadiazol-5-yl)-N-(2,2,2-trifluoroethyl)pyridine-2-carboxamide], under setting [2], the IC50 amounted to 1510 nM.

Take `COCCN(c1ccccc1)c1nc(N)nc(-c2noc(N3CC(Oc4ccccc4)C3)n2)n1` [Example 436, 2-N-(2-Methoxyethyl)-6-[5-(3-phenoxyazetidin-1-yl)-1,2,4-oxadiazol-3-yl]-2-N-phenyl-1,3,5-triazine-2,4-diamine]: the IC50 under setting [2] is 171 nM.

As to `CN(c1ccccc1)c1nc(N)nc(-c2noc(-c3ncccc3NC3CC3)n2)n1` [Example 481, 6-{5-[3-(Cyclopropylamino)pyridin-2-yl]-1,2,4-oxadiazol-3-yl}-2-N-methyl-2-N-phenyl-1,3,5-triazine-2,4-diamine], under setting [2], the IC50 amounted to 1900 nM.

As for `CN(c1ccccc1)c1nc(N)nc(-c2noc([C@H]3CCCN3C(=O)CC3CC3)n2)n1` [Example 449, 1-[(2R)-2-(3-{4-amino-6-[methyl(phenyl)amino]-1,3,5-triazin-2-yl}-1,2,4-oxadiazol-5-yl)pyrrolidin-1-yl]-2-cyclopropylethan-1-one], under setting [2], the IC50 is 2570 nM.

As for `COc1ccc(-c2nc(-c3nc(N)nc(N(C)c4cccc(C)c4)n3)no2)c(OC)c1` [Example 188, 6-[5-(2,4-dimethoxyphenyl)-1,2,4-oxadiazol-3-yl]-2-N-methyl-2-N-(3-methylphenyl)-1,3,5-triazine-2,4-diamine], the IC50 under setting [1] was determined as 7630 nM.

With `CN(c1cccc(Cl)c1)c1nc(N)nc(-c2noc(-c3ccc(OCC(F)(F)F)nc3)n2)n1` [Example 409, 2-N-(3-chlorophenyl)-2-N-methyl-6-{5-[6-(2,2,2-trifluoroethoxy)pyridin-3-yl]-1,2,4-oxadiazol-3-yl}-1,3,5-triazine-2,4-diamine], the IC50 under setting [2] came to 261 nM.

The values are drawn from patent US8895733B2 (Novartis AG, priority 2010, dated 2014).
